The record followed here is US6054441A, “Oxypurine nucleosides and their congeners, and acyl derivatives thereof, for improvement of hematopoiesis” (priority 1995, dated 2000).

In one experiment the test system is FDCPmix cells. The experiment can be described thus: Proliferation of FDCPmix cells, MTT assay (Example 69). As to conditions: for inhibition of proliferation: 10 micrograms/ml down; for activity at 0.01 µg/mL / activity at 0.039 µg/mL / activity at 0.156 µg/mL / activity at 0.625 µg/mL / activity at 2.5 µg/mL / activity at 10 µg/mL: 48 h, read-out: Cell proliferation. Type of experiment: cell-based. The method, then: The FDCPmix cell line was used as a suitable in vitro model for predicting the effects of hematopoietic factors on pluripotential stem cells. These cells can be maintained in an-undifferentiated state in the presence of IL-3 or undergo multi-lineage development in the presence of specific hematopoietic growth factors.
This level of proliferation (100%) served as the control value. Inhibition of proliferation by test compounds was represented as a percent of control.
FDCPmix cells were plated at a density of 5×10^4 cells per well in 96-well plates (5×10^5 /ml) using IMDM medium plus 10% fetal bovine serum. […] Test compounds were added at a decreasing concentrations ranging from 10 micrograms/ml down to 1 nanogram/ml. The test compounds included: 3',5'-O-N^2 -tripalmitoyl-2'-deoxyguanosine, 3',5'-di-O-palmitoyl-2'-deoxyguanosine, 3',5'-O-N^2 -trioctanoyl-2'-deoxyguanosine, 3',5'-di-O-octanoyl-2'-deoxyguanosine, and 3',5'-O-N^2 -trioleyl-2'-deoxyguanosine.
A general note: Tetrazolium assays rely on reduction of a dye to a coloured formazan, in cell work by metabolically active cells.

Experiment [1] deals with hematopoietic recovery after cyclophosphamide. The experiment can be described thus: Hematopoietic recovery after cyclophosphamide (Example 48). Type of experiment: in vivo, Balb/C mice. The conditions noted are these: day 7; vs controls. The method, then:
Cyclophosphamide (CP) (275 mg/kg, i.p.) was administered to 36 Balb/C female mice weighing approximately 20 grams each. Twenty four hours later and each day thereafter for a total of 4 or 6 days, mice were given a 0.4 ml i.p. injection of either physiological saline (controls), palmitoyldeoxyinosine (2.5 μmoles/mouse), or palmitoylxanthosine (2.5 μmoles/mouse). On days 5 and 7 following CP administration 6 of the 12 animals in each of the 3 groups were bled and then sacrificed by cervical dislocation. Spleens were removed and weighed, and complete blood cell counts performed.

Experiment [2] has the same test system. As to the kind of experiment: Hematopoietic recovery after cyclophosphamide (Example 47). Type of experiment: in vivo, Balb/C mice. The method, then: Cyclophosphamide (CP) (275 mg/kg, i.p.) was administered to 48 Balb/C female mice weighing approximately 20 grams each. Twenty-four hours later and each day thereafter for a total of 6 days, mice were given a 0.4 ml i.p. injection of either physiological saline (controls), benzoylguanosine (2.5 μmoles/mouse/day in 0.2% Tween 80), or palmitoylguanosine (2.5 μmoles/mouse/day in 0.2% Tween 80). On days 7 and 10 following CP administration 8 animals from each of the 3 groups were bled and then were sacrificed by cervical dislocation. Spleens were removed and weighed, and complete blood cell counts performed.

Experiment [3] has as its system hematopoiesis in normal mice. As to the kind of experiment: Hematopoiesis in normal mice (Example 56). Type of experiment: in vivo, Balb/C mice. The conditions noted are these: femoral bone marrow; day 5; 2.6 μmoles/mouse, 4 days. On the procedure:
Normal Balb/C female mice weighing approximately 20 grams each were given a daily 0.4 ml i.p. injection of either physiological saline (controls), palmitoylguanosine (2.6 μmoles/mouse), palmitoyldeoxyguanosine (2.6 μmoles/mouse), monopalmitoylguanosine 2',3'-acyclic dialcohol (2.6 μmoles/mouse), and palmitoyl-8-bromoguanosine (2.6 μmoles/mouse) for 4 days. On the fifth day all 3 animals in each of the 5 groups were bled and then sacrificed by cervical dislocation. Spleens were removed and weighed, and complete blood cell counts performed. Femoral bone marrow from each mouse was collected and a differential cell count performed on marrow smears.

Experiment [4] deals with blood cell counts after cyclophosphamide. The experiment can be described thus: Hematopoietic recovery after cyclophosphamide (Example 63). Type of experiment: in vivo, Balb-C mice. As to conditions: for Neutrophils / Platelets / WBC / Spleen: 7 days after CP; for Spleen: 25 mg/kg TriPdG or molar equivalent. The method, then:
Fifty-eight female Balb-C mice weighing approximately 20 grams each received a single injection of cyclophosphamide (250 mg/kg, i.p.), and were then distributed into a vehicle control group (0.2% Tween-80+7.5% DMSO in saline; n=12) or one of five treatment groups:
Vehicle or treatment agents were administered to mice once daily for five days at a volume of 0.4 ml by i.p. injection. TriPdG was given at a dose of 25 mg/kg/treatment. The other four agents were given in doses that are the molar equivalent of 25 mg/kg/treatment of TriPdG. On days 5 and 7 following CP administration half of the animals from each of the six groups were bled and then sacrificed by cervical dislocation. Five untreated mice were also bled and sacrificed to provide data on normal (basal) values. Spleens were removed and weighed, and complete blood cell counts performed.

The test system of experiment [5] is hematopoietic recovery after cyclophosphamide. The experiment can be described thus: Hematopoietic recovery after cyclophosphamide (Example 51). Type of experiment: in vivo, Balb/C mice. The conditions noted are these: day 5; 2 μmoles/mouse. The method, then: Cyclophosphamide (CP) (275 mg/kg, i.p.) was administered to 88 Balb/C female mice weighing approximately 20 grams each. Twenty-four hours later and each day thereafter mice were given a 0.4 ml i.p. injection of either Tween-80 (0.2%) (controls), 3'-O-palmitoyldeoxyguanosine (2 μmoles/mouse), butyryldeoxyguanosine (2 μmoles/mouse), palmitoyl-N-isobutyryldeoxyguanosine (2 μmoles/mouse), lauryldeoxyguanosine (2 μmoles/mouse), octanoyldeoxyguanosine (2 μmoles/mouse), and palmitoyldeoxyguanosine (2 μmoles/mouse). On days 5 and 7 following CP administration 6 or 7 animals in each of the 7 groups were bled and then sacrificed by cervical dislocation. Spleens were removed and weighed, and complete blood cell counts performed.

Turning to `CCCCCCCC(=O)OC[C@H]1O[C@@H](n2cnc3c(=O)[nH]c(N)nc32)C[C@@H]1OC(=O)CCCCCCC` [DiOctdG, 3',5'-di-O-octanoyl-2'-deoxyguanosine], in the experiment with FDCPmix cells, the inhibition of proliferation result was “little or no inhibitory effects”, the activity at 0.01 µg/mL is 84 ± 2%, the activity at 0.039 µg/mL was 86 ± 1% and the activity at 0.156 µg/mL stood at 84 ± 6%. In the experiment on FDCPmix cells, the activity at 0.625 µg/mL was determined as 93 ± 1%, the activity at 2.5 µg/mL amounted to 78 ± 2% and the activity at 10 µg/mL amounted to 100 ± 0.3%.

Turning to Palmitoylxanthosine, in experiment [1], the Neutrophils entry is reported as “significantly increased”, the spleen weight result is listed as “significantly increased” and the total leukocytes result was “significantly increased”.

On to Benzoylguanosine, for which, in experiment [2] (day 7, 2.5 μmoles/mouse/day), the Neutrophils entry was “significantly elevated”, the spleen weight entry was “significantly elevated” and the “total white blood cells” value was “significantly elevated”. Further, the platelet number result in experiment [2] (day 10) is reported as “significantly greater”.

For the molecule `CCCCCCCCCCCCCCCC(=O)OC[C@H]1O[C@@H](n2c(Br)nc3c(=O)[nH]c(N)nc32)[C@H](O)[C@@H]1O` [palmitoyl-8-bromoguanosine], the number of myelocytes entry in experiment [3] is listed as “significantly greater”.

On to `CCCCCCCC/C=C\CCCCCCCC(=O)Nc1nc2c(ncn2[C@H]2C[C@H](OC(=O)CCCCCCC/C=C\CCCCCCCC)[C@@H](COC(=O)CCCCCCC/C=C\CCCCCCCC)O2)c(=O)[nH]1` [TriOdG, 3',5'-O-N^2-trioleyl-2'-deoxyguanosine], for which, in experiment [4], the Neutrophils is recorded as 2.7 ± .4 K/μl, the Platelets came to 741 ± 54 K/μl, the WBC was 5.2 ± .4 K/μl and the Spleen came to 59 ± 5 mg. In addition, in experiment [4] (day 7 after CP, vs control), the lymphocyte counts entry was “increased both platelet and lymphocyte counts”. In the experiment with FDCPmix cells, the inhibition of proliferation entry is “little or no inhibitory effects”, the activity at 0.01 µg/mL was found to be 92 ± 5%, the activity at 0.039 µg/mL worked out at 91 ± 5% and the activity at 0.156 µg/mL was 92 ± 5%. Besides, in the experiment on FDCPmix cells, the activity at 0.625 µg/mL stood at 98 ± 6%, the activity at 2.5 µg/mL is 80 ± 2% and the activity at 10 µg/mL was determined as 110 ± 3%.

With `CCCCCCCCCCCCCCCCCC(=O)Nc1nc2c(ncn2[C@H]2C[C@H](OC(=O)CCCCCCCCCCCCCCCCC)[C@@H](COC(=O)CCCCCCCCCCCCCCCCC)O2)c(=O)[nH]1` [TriSdG, 3',5'-O-N^2-tristearyl-2'-deoxyguanosine], in experiment [4], the Neutrophils is reported as 5.4 ± .5 K/μl, the Platelets is on record as 498 ± 27 K/μl, the WBC is 7.6 ± .4 K/μl and the Spleen was 85 ± 9 mg.

Regarding `CCCCCCCCCCCCCCCC(=O)O[C@H]1C[C@H](n2cnc3c(=O)[nH]c(N)nc32)O[C@@H]1CO` [3'-O-palmitoyldeoxyguanosine, 3'-O-Palmitoyl-2'-deoxyguanosine], in experiment [5], the spleen weight result is listed as “significantly elevated” and the total neutrophil counts result is “significantly elevated”.

As for `CCCCCCCC(=O)Nc1nc2c(ncn2[C@H]2C[C@H](OC(=O)CCCCCCC)[C@@H](COC(=O)CCCCCCC)O2)c(=O)[nH]1` [TriOctdG, 3',5'-O-N^2-trioctanoyl-2'-deoxyguanosine], in the experiment on FDCPmix cells, the inhibition of proliferation entry was “little or no inhibitory effects”, the activity at 0.01 µg/mL amounted to 87 ± 4%, the activity at 0.039 µg/mL came to 85 ± 2% and the activity at 0.156 µg/mL is 89 ± 6%. Also, in the experiment on FDCPmix cells, the activity at 0.625 µg/mL worked out at 86 ± 2%, the activity at 2.5 µg/mL was found to be 96 ± 0.1% and the activity at 10 µg/mL came to 107 ± 1%.

For `CCCCCCCCCCCCCCCC(=O)OC[C@H]1O[C@@H](n2cnc3c(=O)[nH]c(NC(=O)C(C)C)nc32)C[C@@H]1O` [NibuPdG, N^2-isobutyryl-5'-O-palmitoyl-2'-deoxyguanosine], in experiment [5], the spleen weight result is on record as “significantly elevated” and the total neutrophil counts result is recorded as “significantly elevated”. Further, in experiment [4], the Neutrophils is 2.2 ± .5 K/μl, the Platelets is on record as 649 ± 23 K/μl, the WBC is 4.4 ± .5 K/μl and the Spleen amounted to 69 ± 6 mg.
